Laboratory results as given in US7521396B2, “Substituted (thioxo)carbonylaminophenyluracils” (Bayer CropScience AG, priority 2002, dated 2009).
Marks after values point to notes of the source that are not given here.

Tested on: weeds
Assay: Post-emergence test (Example B), damage to weeds
Format: in vivo
Conditions: test plants of 5-15 cm sprayed, rated after three weeks
Experimental: To produce a suitable preparation of active compound, 1 part by weight of active compound is mixed with the stated amount of solvent, the stated amount of emulsifier is added and the concentrate is diluted with water to the desired concentration.
Test plants of a height of 5-15 cm are sprayed with the preparation of active compound such that the particular amounts of active compound desired are applied per unit area. The concentration of the spray liquor is chosen such that the particular amounts of active compound desired are applied in 1000 l of water/ha.
After three weeks, the degree of damage to the plants is rated in % damage in comparison to the development of the untreated control.
The figures denote: • 0%=no effect (like untreated control) • 100%=total destruction

SMILES	activity against weeds (degree of damage)
COC(=O)[C@@H]1CCCN1C(=O)Nc1cc(-n2c(=O)cc(C(F)(F)F)n(C)c2=O)c(F)cc1Br [Example 33]	strong activity
COC(=O)[C@@H]1CCCN1C(=O)Nc1cc(-n2c(=O)cc(C(F)(F)F)n(C)c2=O)c(F)cc1Cl [Example 34]	strong activity
CCOC(=O)C1CCN(C(=O)Nc2cc(-n3c(=O)cc(C(F)(F)F)n(C)c3=O)c(F)cc2Br)CC1 [Example 36]	strong activity
Cn1c(C(F)(F)F)cc(=O)n(-c2cc(NC(=O)N3CCOCC3)c(Br)cc2F)c1=O [Example 41]	strong activity
CCOC(=O)C1CCN(C(=O)Nc2cc(-n3c(=O)cc(C(F)(F)F)n(C)c3=O)c(F)cc2Cl)CC1 [Example 42]	strong activity

Tested on: not listed separately
Assay: logP by HPLC on reversed-phase column (C 18), EEC Directive 79/831 Annex V.A8
Format: physicochemical
Conditions: not given

SMILES	logP
COC(=O)[C@@H]1CCCN1C(=O)Nc1cc(-n2c(=O)cc(C(F)(F)F)n(C)c2=O)c(F)cc1Br [Example 33]	logP = 2.52^a)
CN1CCCN(C(=O)Nc2cc(-n3c(=O)cc(C(F)(F)F)n(C)c3=O)c(F)cc2Cl)C1=O [Example 56]	logP = 2.76^a)
Cn1c(C(F)(F)F)cc(=O)n(-c2cc(NC(=O)N3CCC4(CC3)OCCO4)c(Br)cc2F)c1=O [Example 85]	logP = 2.35^a)
Cn1c(C(F)(F)F)cc(=O)n(-c2cc(NC(=O)N3CCC(O)CC3)c(Cl)cc2F)c1=O [Example 117]	logP = 1.77^a)
C#CCN(C(=O)N(C)OC)c1cc(-n2c(=O)cc(C(F)(F)F)n(C)c2=O)c(F)cc1Cl [Example 108]	logP = 2.75^a)
CC1CN(C(=O)Nc2cc(-n3c(=O)cc(C(F)(F)F)n(C)c3=O)c(F)cc2Br)CC(C)O1 (stereo not drawn) [Example 120]	logP = 2.55^a)
CCOC(=O)C1CCCN(C(=O)Nc2cc(-n3c(=O)cc(C(F)(F)F)n(C)c3=O)c(F)cc2C#N)C1 (stereo not drawn) [Example 133]	logP = 2.70^a)
COC(=O)[C@@H]1CCCN1C(=O)Nc1cc(-n2c(=O)cc(C(F)(F)F)n(C)c2=O)c(F)cc1Cl [Example 34]	logP = 2.46^a)
Cn1c(C(F)(F)F)cc(=O)n(-c2cc(NC(=O)N3CCC(O)CC3)c(Br)cc2F)c1=O [Example 118]	logP = 1.81^a)
Cn1c(C(F)(F)F)cc(=O)n(-c2cc(NC(=O)N3CCC4(CC3)OCCCO4)c(Cl)cc2F)c1=O [Example 86]	logP = 2.29^a)
CON(C)C(=O)N(C)c1cc(-n2c(=O)cc(C(F)(F)F)n(C)c2=O)c(F)cc1Cl [Example 77]	logP = 2.53^a)
CCOC(=O)N1CCN(C(=O)Nc2cc(-n3c(=O)cc(C(F)(F)F)n(C)c3=O)c(F)cc2Cl)CC1 [Example 96]	logP = 2.43^a)
CCOC(=O)C1CCN(C(=O)Nc2cc(-n3c(=O)cc(C(F)(F)F)n(C)c3=O)c(F)cc2Br)CC1 [Example 36]	logP = 2.88^a)
CCOC(=O)C1CCCN(C(=O)Nc2cc(-n3c(=O)cc(C(F)(F)F)n(C)c3=O)c(F)cc2Cl)C1 (stereo not drawn) [Example 43]	logP = 2.93^a)
Cn1c(C(F)(F)F)cc(=O)n(-c2cc(NC(=O)N3CCOCC3)c(Br)cc2F)c1=O [Example 41]	logP = 2.16^a)
Cn1c(C(F)(F)F)cc(=O)n(-c2cc(NC(=O)N3CCC4(CC3)OCCCO4)c(Br)cc2F)c1=O [Example 87]	logP = 2.35^a)
CC1CN(C(=O)Nc2cc(-n3c(=O)cc(C(F)(F)F)n(C)c3=O)c(F)cc2Cl)CC(C)O1 (stereo not drawn) [Example 119]	logP = 2.50^a)

SMILES	logP
CCN(C(=O)N(C)OC)c1cc(-n2c(=O)cc(C(F)(F)F)n(C)c2=O)c(F)cc1Cl [Example 111]	logP = 2.80^a)
CON(C)C(=O)N(c1cc(-n2c(=O)cc(C(F)(F)F)n(C)c2=O)c(F)cc1Cl)S(C)(=O)=O [Example 109]	logP = 2.56^a)
Cn1c(C(F)(F)F)cc(=O)n(-c2cc(NC(=O)N3CCCCO3)c(Cl)cc2F)c1=O [Example 62]	logP = 2.89^a)
Cn1c(C(F)(F)F)cc(=O)n(-c2cc(NC(=O)N3CCC(O)C3)c(Cl)cc2F)c1=O (stereo not drawn) [Example 113]	logP = 1.72^a)
Cn1c(C(F)(F)F)cc(=O)n(-c2cc(NC(=O)N3CCCCCC3)c(Br)cc2F)c1=O [Example 99]	logP = 3.10^a)
Cn1c(C(F)(F)F)cc(=O)n(-c2cc(NC(=O)SC3=NCCS3)c(Cl)cc2F)c1=O [Example 11]	logP = 3.50^a)
Cn1c(C(F)(F)F)cc(=O)n(-c2cc(NC(=O)SC3=NCCS3)c(Br)cc2F)c1=O [Example 16]	logP = 3.53^a)
CCN1CCN(C(=O)Nc2cc(-n3c(=O)cc(C(F)(F)F)n(C)c3=O)c(F)cc2Cl)C1=O [Example 53]	logP = 2 2.81^a)
CCOC(=O)C1CCN(C(=O)Nc2cc(-n3c(=O)cc(C(F)(F)F)n(C)c3=O)c(F)cc2Cl)CC1 [Example 42]	logP = 2.84^a)
CCN(OC)C(=O)Nc1cc(-n2c(=O)cc(C(F)(F)F)n(C)c2=O)c(F)cc1Cl [Example 74]	logP = 2.93^a)
Cn1c(C(F)(F)F)cc(=O)n(-c2cc(NC(=O)N3CCCS3(=O)=O)c(Cl)cc2F)c1=O [Example 102]	logP = 2.38^a)
Cn1c(C(F)(F)F)cc(=O)n(-c2cc(NC(=O)N3CCCCCC3)c(Cl)cc2F)c1=O [Example 98]	logP = 3.02^a)
CC(=O)NC1CCN(C(=O)Nc2cc(-n3c(=O)cc(C(F)(F)F)n(C)c3=O)c(F)cc2Cl)C1 (stereo not drawn) [Example 94]	logP = 1.74^a)
Cn1c(C(F)(F)F)cc(=O)n(-c2cc(NC(=O)N3CCCCO3)c(Br)cc2F)c1=O [Example 63]	logP = 2.96^a)
Cn1c(C(F)(F)F)cc(=O)n(-c2cc(NC(=O)N3CCC4(CC3)OCCO4)c(Cl)cc2F)c1=O [Example 84]	logP = 2.29^a)
CN1CCN(C(=O)Nc2cc(-n3c(=O)cc(C(F)(F)F)n(C)c3=O)c(F)cc2Cl)C1=O [Example 51]	logP = 2.52^a)

Now from value to compound:

logP	SMILES
logP = 2.59^a)	COC(=O)CSC(=O)Nc1cc(-n2c(=O)cc(C(F)(F)F)n(C)c2=O)c(F)cc1Br [Example 19]
logP = 2.90^a)	CCOC(=O)CSC(=O)Nc1cc(-n2c(=O)cc(C(F)(F)F)n(C)c2=O)c(F)cc1Br [Example 18]
logP = 2.74^a)	CCOC(=O)C(C)OC(=O)Nc1cc(-n2c(=O)cc(C(F)(F)F)n(C)c2=O)c(F)cc1Cl (stereo not drawn) [Example 127]
logP = 2.55^a)	COC(=O)CSC(=O)Nc1cc(-n2c(=O)cc(C(F)(F)F)n(C)c2=O)c(F)cc1Cl [Example 14]
logP = 2.80^a)	CCOC(=O)CSC(=O)Nc1cc(-n2c(=O)cc(C(F)(F)F)n(C)c2=O)c(F)cc1Cl [Example 13]
logP = 3.35^a)	CCON(CC)C(=O)Nc1cc(-n2c(=O)cc(C(F)(F)F)n(C)c2=O)c(F)cc1Cl [Example 71]
logP = 2.54^a)	CCOC(=O)CN(C)C(=O)Nc1cc(-n2c(=O)cc(C(F)(F)F)n(C)c2=O)c(F)cc1Br [Example 122]
logP = 3.11^a)	CCOC(=O)C(C)SC(=O)Nc1cc(-n2c(=O)cc(C(F)(F)F)n(C)c2=O)c(F)cc1Cl (stereo not drawn) [Example 12]
logP = 2.62^a)	CCOC(=O)CONC(=O)Nc1cc(-n2c(=O)cc(C(F)(F)F)n(C)c2=O)c(F)cc1Br [Example 105]
logP = 3.06^a)	CCON(C)C(=O)Nc1cc(-n2c(=O)cc(C(F)(F)F)n(C)c2=O)c(F)cc1Br [Example 69]
logP = 2.58^a)	CCOC(=O)CONC(=O)Nc1cc(-n2c(=O)cc(C(F)(F)F)n(C)c2=O)c(F)cc1Cl [Example 104]
logP = 3.16^a)	CCOC(=O)C(C)(C)ONC(=O)Nc1cc(-n2c(=O)cc(C(F)(F)F)n(C)c2=O)c(F)cc1Br [Example 101]
logP = 1.80^a)	CC(=O)NC1CCN(C(=O)Nc2cc(-n3c(=O)cc(C(F)(F)F)n(C)c3=O)c(F)cc2Br)C1 (stereo not drawn) [Example 95]
logP = 3.01^a)	CCN(OC)C(=O)Nc1cc(-n2c(=O)cc(C(F)(F)F)n(C)c2=O)c(F)cc1Br [Example 75]
logP = 2.74^a)	CCOC(=O)COC(=O)Nc1cc(-n2c(=O)cc(C(F)(F)F)n(C)c2=O)c(F)cc1Cl [Example 126]
logP = 2.99^a)	CCON(C)C(=O)Nc1cc(-n2c(=O)cc(C(F)(F)F)n(C)c2=O)c(F)cc1Cl [Example 68]
logP = 2.79^a)	CCOC(=O)COC(=O)Nc1cc(-n2c(=O)cc(C(F)(F)F)n(C)c2=O)c(F)cc1Br [Example 125]
logP = 3.11^a)	CCOC(=O)C(C)(C)ONC(=O)Nc1cc(-n2c(=O)cc(C(F)(F)F)n(C)c2=O)c(F)cc1Cl [Example 100]
logP = 2.48^a)	CCOC(=O)CN(C)C(=O)Nc1cc(-n2c(=O)cc(C(F)(F)F)n(C)c2=O)c(F)cc1Cl [Example 121]
logP = 2.41^a)	Cn1c(C(F)(F)F)cc(=O)n(-c2cc(NC(=O)N3CCCS3(=O)=O)c(Br)cc2F)c1=O [Example 103]
logP = 3.15^a)	CCOC(=O)C(C)SC(=O)Nc1cc(-n2c(=O)cc(C(F)(F)F)n(C)c2=O)c(F)cc1Br (stereo not drawn) [Example 17]
logP = 3.41^a)	CCON(CC)C(=O)Nc1cc(-n2c(=O)cc(C(F)(F)F)n(C)c2=O)c(F)cc1Br [Example 72]
logP = 2.47^a)	CCOC(=O)N1CCN(C(=O)Nc2cc(-n3c(=O)cc(C(F)(F)F)n(C)c3=O)c(F)cc2Br)CC1 [Example 97]

Same assay, conditions: a) acidic range: 0.1% aqueous phosphoric acid, acetonitrile gradient; 43° C.

SMILES	logP
Cn1c(C(F)(F)F)cc(=O)n(-c2cc(NC(=O)N3CCC(=O)CC3)c(Br)cc2F)c1=O [Example 93]	logP = 1.97^a)
C=CCN(C(=O)N(C)OC)c1cc(-n2c(=O)cc(C(F)(F)F)n(C)c2=O)c(F)cc1Cl [Example 106]	logP = 2.96^a)
Cn1c(C(F)(F)F)cc(=O)n(-c2cc(NC(=O)N3CCC(=O)CC3)c(Cl)cc2F)c1=O [Example 92]	logP = 1.93^a)
Cn1c(C(F)(F)F)cc(=O)n(-c2cc(NC(=O)NCCC#N)c(Cl)cc2F)c1=O [Example 15]	logP = 2.06^a)

Same assay, conditions: reversed-phase C18 HPLC column, pH 2

chromatographic logP	SMILES
2.98	CCOC(=O)C1CCCN(C(=O)Nc2cc(-n3c(=O)cc(C(F)(F)F)n(C)c3=O)c(F)cc2Br)C1 (stereo not drawn) [Example 1, ethyl 1-[2-bromo-4-fluoro-5-(3-methyl-2,6-dioxo-4-trifluoromethyl-3,6-dihydro-2H-pyrimidin-1-yl)phenylcarbamoyl]piperidine-3-carboxylate]
